Data published in patent US4185119A, “Antiallergic methods” (priority 1977, dated 1980).

What was measured:
[1] = cited from earlier work
[2] = Antiallergic action (summary of tests); assay type: in vivo; settings: summary statement
From the text: Test: Antiallergic Action
(2) Inhibition test of P.C.A. (Passive Cutaneous Anaphylaxis) reaction
(3) Inhibition test of anaphylactic asthma in guinea-pigs

[3] = tested on: P.C.A. reaction in Donryu strain rats; assay: Inhibition of P.C.A. reaction in Donryu strain rats, rat hyperimmune antiserum against egg albumin; assay type: in vivo; settings: Donryu rat (Table 2-II)
Experimental: (b) Rat hyperimmune antiserum against egg albumin
A solution of egg albumin (20 mg.) in normal saline (1 ml.) was mixed with complete adjuvant (1 ml.) (made by Difco Laboratories) to given an emulsion. The emulsion was subcutaneously given in a single dose of 1 ml. divided equally (0.25 ml.) to the four pads of male S.D. strain rats aged 6 weeks, each weighing about 200 g. (The first immunization).
One week after the administration, an emulsion which was prepared by mixing a solution of egg albumin (10 mg.) in normal saline (1 ml.) with complete adjuvant (1 ml.) was further given subcutaneously (at 3 places) and intramuscularly (at 1 place) in a single dose of 1 ml. divided equally (0.25 ml.) to thigh of the same rats. (The second immunization).
Three weeks after the second administration, a solution of egg albumin (1 mg.) in normal saline (1 ml.) was further given intracutaneously in a single dose of 0.3 ml. divided equally (0.1 ml.) to 3 places of the same rats. (The third immunization).
One week after the third administration, blood samples were collected from rats and treated in substantially the same manner as described in the above item (a). The antisera thus obtained were stored at -80° C. prior to use.
Further, an inhibition test on P.C.A. reaction using the rat hyperimmuneantiserum against egg albumin was carried out in substantially the same manner as described in the above, excepting that the intravenous administration to bring about P.C.A. was carried out at 5.5 hours after the administration of the serum and antiserum. And inhibitory effect on the P.C.A. reaction was also calculated in substantially the same manner as described in the above.
(§1) (b) Inhibitory effect on P.C.A. reaction in Donryu strain rat
(§2) The following tests were carried out in substantially the same manner as described in the above item (2)-(a).
(§3) (i) Test compound: N:methyllaurotetanine hydrochloride
(§4) Test animal: Male Donryu strain rats aged 8 weeks, weighing about 130 g.
(§5) Challenge: A normal saline (0.3 ml.) containing egg albumin (4.5 mg.) and Evans blue (1.5 mg.).
(§6) (ii) Test commpound: glaucine or boldine
(§7) Test animal: Male Donryu strain rats aged 8 weeks, weighing 140-150 g.
(§8) Challenge: the same as the above item (b)-(i).

[4] = tested on: P.C.A. reaction in Donryu strain rats; assay: Inhibition of P.C.A. reaction in Donryu strain rats, rat reaginic antiserum against egg albumin; assay type: in vivo; settings: Donryu rat (Table 2-II)
Experimental: (a) Rat reaginic antiserum against egg albumin
A solution of egg albumin (2 mg) in B. pertussis-diphtheria-tetanus mixed vaccine (1 ml.) (made by Takeda Chemical Industries Ltd.) was mixed with an equal volume of incomplete adjuvant (made by Difco Laboratories) to give an emulsion. The emulsion was given subcutaneously in a single dose of 1 ml. divided equally (0.25 ml.) to the four foot pads of male S.D. (Sprague-Dawley) strain rats aged 8 weeks, each weighing about 300 g.
Five days after the administration, a solution of egg albumin (0.5 mg.) in B. pertussis-diphtheria-tetanus mixed vaccine (0.5 ml.) was further given intramuscularly in a single dose of 0.5 ml. divided equally (0.25 ml.) to 2 places of thigh of the same rats.
Three days after the second administration, blood samples were collected from femoral artery of the rats and allowed to stand at ambient temperature for 5 hours. The separated supernatant was centrifuged at 4° C. (10,000 r.p.m.× 1 hour). The antisera thus obtained were stored at -80° C. prior to use.
as §1, §2, §3, §4, §5, §6, §7, §8

Acute toxicity in mice = settings: mouse, in vivo, ip; intraperitoneal, male I.C.R. mice, survivals at one week
Experimental: Test: Acute Toxicity in Mice
A normal saline containing each of the test compound mentioned below and 0.5% carboxymethylcellulose was given intraperitoneally to male I.C.R. (Institute of Cancer Research) strain mice aged 5 weeks, weighing 33-35 g. LD50 values were calculated from the survivals of mice at one week after the administration of the test compound.

[5] = Apomorphine-like side effect (summary of side effect tests); assay type: in vivo; settings: summary statement
From the text: (i) Rotational behavior inducing action in rats unilaterally lesioned in substantia nigra,
(ii) Gnawing behavior including action in rats, and
(iii) Vomiting-inducing action in dogs

[6] = tested on: P.C.A. reaction in I.C.R. strain mice; assay: Inhibition test of P.C.A. reaction in I.C.R. strain mice, rat hyperimmune antiserum against egg albumin; assay type: in vivo; settings: intraperitoneal, I.C.R. mouse (Table 3-II)
Experimental: (c) Inhibition test of P.C.A. reaction in I.C.R. (Institute of Cancer Research) strain mice
(i) Test compound: N-methyllaurotetanine hydrochloride
Fifteen male I.C.R. strain mice aged 7 weeks, weighing about 35 g were divided equally into 3 groups. Each of the groups was composed of 5 mice, (in case of intraperioneal administration of the test compound to the mouse, each of the groups was composed of […]).
Ten-hold diluted solution (0.05 ml.) of the rat hyperimmune antiserum against egg albumin was given intracutaneously to the depilated back of each mouse of Group I and Group II, respectively. On the other hand, a rat normal serum (0.05 ml.) was given intracutaneously to the depilated back of each mouse of Group III. Three hours after the administration, a normal saline (0.1 ml.) containing egg albumin (1.5 mg.) and Evans blue (0.5 mg.) was given intravenously to each mouse of Groups I-III in order to bring about P.C.A., respectively.
Beforehand, 3 hours and 1 hours before the admnistration to bring about P.C.A., a normal saline (0.3 ml.) containing the prescribed amount of N-methyllaurotetanine hydrochloride and carboxymethylcellulose (0.5%) was given orally or intraperitoneally to each mouse of Group I, and a normal saline (0.3 ml.) containing only carboxymethylcellulose (0.5%) was given orally or intraperitoneally to each mouse of Group II.
The procedure followed by the above, was carried out in substantially the same manner as described in the above item (2)-(a). […]

Row | Structure (SMILES) | diuretic activity ([1]; THE MERCK INDEX EIGHTH EDITION, Page 159 (1968)) | antiallergic effects [2] | Inhibitory effect on P.C.A. reaction ([3]; intraperitoneal, 66 mg/kg) [%] | Inhibitory effect on P.C.A. reaction ([4]; intraperitoneal, 66 mg/kg) [%] | LD50 at 168 h (Acute toxicity in mice) [mg/kg] | apomorphine-like side effect [5] | Inhibitory effect on P.C.A. reaction ([6]; 30 mg/kg) [%] | adrenolytic action and antitussive properties ([1]; Chemical Abstracts Vol. 68, 94521Z (1968)) | Inhibitory effect on P.C.A. reaction ([3]; intraperitoneal, 20 mg/kg) [%] | Inhibitory effect on P.C.A. reaction ([3]; intraperitoneal, 60 mg/kg) [%] | Inhibitory effect on P.C.A. reaction ([3]; oral, 50 mg/kg) [%] | Inhibitory effect on P.C.A. reaction ([3]; oral, 100 mg/kg) [%] | Inhibitory effect on P.C.A. reaction ([3]; oral, 200 mg/kg) [%] | Inhibitory effect on P.C.A. reaction ([4]; intraperitoneal, 20 mg/kg) [%] | Inhibitory effect on P.C.A. reaction ([4]; intraperitoneal, 60 mg/kg) [%] | Inhibitory effect on P.C.A. reaction ([4]; oral, 50 mg/kg) [%] | Inhibitory effect on P.C.A. reaction ([4]; oral, 100 mg/kg) [%] | Inhibitory effect on P.C.A. reaction ([4]; oral, 200 mg/kg) [%] | Inhibitory effect on P.C.A. reaction ([6]; 10 mg/kg) [%] | curariform activity ([1]; Japanese Patent Publication No. 24092/1961)
1 | COc1cc2c(cc1O)C[C@H]1c3c(cc(O)c(OC)c3-2)CCN1C [Boldine, boldine] | diuretic activity | much superior antiallergic effects | 30 | 40 | 145 | without apomorphine-like side effect | 20 |  |  |  |  |  |  |  |  |  |  |  |  | 
2 | COc1cc2c(cc1OC)-c1c(OC)c(OC)cc3c1[C@H](C2)N(C)CC3 [Glaucine, glaucine] |  | much superior antiallergic effects |  |  | 212 | without apomorphine-like side effect | 60 | adrenolytic action and antitussive properties | 50 | 85 | 60 | 80 | 90 | 60 | 95 | 70 | 80 | 95 | 50 | 
3 | COc1cc2c(cc1O)CC1c3c(cc(OC)c(OC)c3-2)CCN1C (centres unmarked) [N-methyllaurotetanine] |  | much superior antiallergic effects |  |  |  | without apomorphine-like side effect |  |  |  |  |  |  |  |  |  |  |  |  |  | curariform activity
